Measured values taken from US20120264685A1 (priority 2009, published 2012).
Where a SMILES comes first, the peptide text is derived from it. [ ]: non-standard residue; d: D form. ξ: configuration not given here. ξαMeBip(2'-Et,4'-OMe) = CCc1cc(OC)ccc1-c1ccc(CC(C)(N)C(=O)O)cc1; ξαMePhe(2,6-F2) = CC(N)(Cc1c(F)cccc1F)C(=O)O; ξhhPhe = NC(CCCc1ccccc1)C(=O)O; ξαMeP = CC1(C(=O)O)CCCN1; ξαMeS = CC(N)(CO)C(=O)O

Tested on: male C57BL/6J mice
Assay: Acute single dose 120-min time-course experiment, in vivo glucose reduction
Design: unit not given here
Conditions: n = 8, Mean ± SEM
Protocol: Acute single dose 120-min time-course experiments were carried out in male C57BL/6J or db/db mice, age 8-12 weeks, bred in-house. The animals were housed in groups of 6 animals per cage, for a week, in order to habituate them to vivarium conditions (25+4° C., 60-65% relative humidity, 12:12 h light: dark cycle, with lights on at 7.30 am). All the animal experiments were carried out according to the internationally valid guidelines following approval by the ‘Zydus Research Center animal ethical committee’.
[…] On the day of experiment, food was withdrawn from all the cages, water was given ad-libitum and were kept for overnight fasting. Vehicle (normal saline)/test/standard compounds were administered intraperitoneally (i.p.) or orally, on a body weight basis. Soon after the 0 min. blood collection from each animal, the subsequent blood collections were done at 30, 60 and 120 or upto 240 min., via retro-orbital route, under light ether anesthesia (Chen, D., et al., Diabetes Obesity Metabolism, 2005, 7, 307. Kim, J. G. et al., Diabetes, 2003, 52, 751).
The blood samples were centrifuged and the separated serum was immediately subjected for the glucose estimation. The serum for insulin estimation was stored at −70° C. until used for the insulin estimation. The glucose estimation was carried out with DPEC-GOD/POD method (Ranbaxy Fine Chemicals Limited, Diagnostic division, India), using Spectramax-190, in 96-microwell plate reader (Molecular devices Corporation, Sunnyvale, Calif.). […] The AUC and BCAUC obtained from graphs were analyzed for one way ANOVA, followed by Dunnett's post test, using Graph Pad prism software. Furthermore, the insulin estimation was carried out using rat/mouse insulin ELISA kit (Linco research, Missouri USA).

| Structure (SMILES) | blood glucose level (in vivo glucose reduction) (2 μM/kg, oral, 0 min) | blood glucose level (in vivo glucose reduction) (2 μM/kg, oral, 30 min) | blood glucose level (in vivo glucose reduction) (2 μM/kg, oral, 60 min) | blood glucose level (in vivo glucose reduction) (2 μM/kg, oral, 120 min) | also measured |
| --- | --- | --- | --- | --- | --- |
| CCc1cc(OC)ccc1-c1ccc(CC(NC(=O)[C@H](CC(=O)O)NC(=O)[C@H](CO)NC(=O)[C@@H](NC(=O)C(C)(Cc2c(F)cccc2F)NC(=O)[C@@H](NC(=O)CNC(=O)[C@H](CCC(N)=O)NC(=O)[C@H](CO)NC(=O)[C@H](Cc2c[nH]cn2)NC(=O)[C@@H](N)C(C)C)[C@@H](C)O)[C@@H](C)O)C(=O)NC(C)(CCCc2ccccc2)C(N)=O)cc1 (single isomer, unassigned) [Seq. ID. No. 99, VHSQGT-(αMe-2,6-diF-Phe)-TSD-Bip(OMe)-(αMe-APPA)] | 184 ± 2.5 | 118 ± 3.6 | 113 ± 4.2 | 110 ± 2.4 | – |
| CCc1cc(OC)ccc1-c1ccc(CC(C)(NC(=O)C(C)(CC(=O)O)NC(=O)[C@H](CO)NC(=O)[C@@H](NC(=O)C(C)(Cc2c(F)cccc2F)NC(=O)[C@@H](NC(=O)CNC(=O)[C@H](CCC(N)=O)NC(=O)C2(C)CCCN2C(=O)[C@H](Cc2c[nH]cn2)NC(=O)[C@@H](N)C(C)C)[C@@H](C)O)[C@@H](C)O)C(=O)NC(CCCc2ccccc2)C(N)=O)cc1 (single isomer, unassigned) [Seq. ID. No. 76, VH-(αMe-Pro)-QGT-(αMe-2,6-diFPhe)-TS-(αMe-Asp)-(αMe-Bip(OMe))-(APPA)] | 183 ± 2.4 | 116 ± 3.1 | 112 ± 4.8 | 110 ± 2.5 | – |
| CCc1cc(OC)ccc1-c1ccc(CC(C)(NC(=O)[C@H](CC(=O)O)NC(=O)[C@H](CO)NC(=O)[C@@H](NC(=O)C(C)(Cc2ccccc2F)NC(=O)[C@@H](NC(=O)CNC(=O)[C@H](CCC(=O)O)NC(=O)[C@H](CO)NC(=O)[C@H](Cc2c[nH]cn2)NC(=O)[C@@H](N)C(C)C)[C@@H](C)O)[C@@H](C)O)C(=O)NC(C)(CCCc2ccccc2)C(N)=O)cc1 (single isomer, unassigned) [Seq. ID. No. 145, VHSEGT-(αMe-2FPhe)-TSD-(αMe-Bip(OMe))-(αMe-APPA)] | 184 ± 2.2 | 118 ± 3.3 | 112 ± 4.4 | 110 ± 2.9 | – |
| CCc1cc(OC)ccc1-c1ccc(CC(C)(NC(=O)C(C)(CC(=O)O)NC(=O)[C@H](CO)NC(=O)[C@@H](NC(=O)C(C)(Cc2c(F)cccc2F)NC(=O)[C@@H](NC(=O)CNC(=O)[C@H](CCC(N)=O)NC(=O)C(C)(C)NC(=O)[C@H](Cc2c[nH]cn2)NC(=O)[C@@H](N)C(C)C)[C@@H](C)O)[C@@H](C)O)C(=O)NC(C)(CCCc2ccccc2)C(N)=O)cc1 (single isomer, unassigned) [Seq. ID. No. 199, VH-Aib-QGT-(αMe-2,6-diFPhe)-TS-(αMe-Asp)-(αMe-Bip(OMe))-(αMe-APPA)] | – | – | – | – | blood glucose level (in vivo glucose reduction) (30 nM/kg, i.p, 0 min): 180 ± 1.2; blood glucose level (in vivo glucose reduction) (30 nM/kg, i.p, 30 min): 116 ± 3.2; blood glucose level (in vivo glucose reduction) (30 nM/kg, i.p, 60 min): 116 ± 3.1; blood glucose level (in vivo glucose reduction) (30 nM/kg, i.p, 120 min): 118 ± 1.8 |
| CCc1cc(OC)ccc1-c1ccc(CC(C)(NC(=O)C(C)(CC(=O)O)NC(=O)[C@H](CO)NC(=O)[C@@H](NC(=O)[C@H](Cc2ccccc2)NC(=O)[C@@H](NC(=O)CNC(=O)[C@H](CCC(=O)O)NC(=O)C2(C)CCCN2C(=O)[C@H](Cc2c[nH]cn2)NC(=O)[C@@H](N)C(C)C)[C@@H](C)O)[C@@H](C)O)C(=O)NC(CCCc2ccccc2)C(N)=O)cc1 (single isomer, unassigned) [Seq. ID. No. 64, VH-(αMe-Pro)-EGTFTS-(αMe-Asp)-(αMe-Bip(OMe))-(APPA)] | 183 ± 2.4 | 116 ± 3.1 | 112 ± 4.8 | 110 ± 2.5 | – |
| CCc1cc(OC)ccc1-c1ccc(CC(C)(NC(=O)C(C)(CC(=O)O)NC(=O)[C@H](CO)NC(=O)[C@@H](NC(=O)[C@H](Cc2ccccc2)NC(=O)[C@@H](NC(=O)CNC(=O)[C@H](CCC(=O)O)NC(=O)C(C)(C)NC(=O)[C@H](Cc2c[nH]cn2)NC(=O)[C@@H](N)C(C)C)[C@@H](C)O)[C@@H](C)O)C(=O)NC(C)(CCCc2ccccc2)C(N)=O)cc1 (single isomer, unassigned) [Seq. ID. No. 187, VH-Aib-EGTFTS-(αMe-Asp)-(αMe-Bip(OMe))-(αMe-APPA)] | 183 ± 2.4 | 119 ± 3.1 | 112 ± 4.8 | 110 ± 2.5 | – |
| CCc1cc(OC)ccc1-c1ccc(CC(NC(=O)[C@H](CC(=O)O)NC(=O)[C@H](CO)NC(=O)[C@@H](NC(=O)C(C)(Cc2c(F)cccc2F)NC(=O)[C@@H](NC(=O)CNC(=O)[C@H](CCC(=O)O)NC(=O)C(C)(C)NC(=O)[C@H](Cc2c[nH]cn2)NC(=O)[C@@H](N)C(C)C)[C@@H](C)O)[C@@H](C)O)C(=O)NC(C)(CCCc2ccccc2)C(N)=O)cc1 (single isomer, unassigned) [Seq. ID. No. 105, VH-Aib-EGT-(αMe-2,6-diFPhe)-TSD-Bip(OMe)-(αMe-APPA)] | 185 ± 2.1 | 115 ± 2.8 | 112 ± 4.9 | 111 ± 2.2 | – |
| CCc1cc(OC)ccc1-c1ccc(CC(C)(NC(=O)[C@H](CC(=O)O)NC(=O)C(C)(CO)NC(=O)[C@@H](NC(=O)C(C)(Cc2c(F)cccc2F)NC(=O)[C@@H](NC(=O)CNC(=O)[C@H](CCC(=O)O)NC(=O)C2(C)CCCN2C(=O)[C@H](Cc2c[nH]cn2)NC(=O)[C@@H](N)C(C)C)[C@@H](C)O)[C@@H](C)O)C(=O)NC(CCCc2ccccc2)C(N)=O)cc1 (stereo partly drawn) [Seq. ID. No. 56, VH-(αMe-Pro)-EGT-(αMe-2,6-diFPhe)-T-(αMe-Ser)-D-(αMe-Bip(OMe))-(APPA)] (H-VH[ξαMeP]EGT[ξαMePhe(2,6-F2)]T[ξαMeS]D[ξαMeBip(2'-Et,4'-OMe)][ξhhPhe]-NH2) | – | – | – | – | blood glucose level (in vivo glucose reduction) (5 nM/kg, i.p, 0 min): 179 ± 5.0; blood glucose level (in vivo glucose reduction) (5 nM/kg, i.p, 30 min): 120 ± 3.6; blood glucose level (in vivo glucose reduction) (5 nM/kg, i.p, 60 min): 129 ± 2.0; blood glucose level (in vivo glucose reduction) (5 nM/kg, i.p, 120 min): 148 ± 1.7 |
| CCc1cc(OC)ccc1-c1ccc(CC(C)(NC(=O)[C@H](CC(=O)O)NC(=O)C(C)(CO)NC(=O)[C@@H](NC(=O)C(C)(Cc2ccccc2F)NC(=O)[C@@H](NC(=O)CNC(=O)[C@H](CCC(N)=O)NC(=O)[C@H](C)NC(=O)[C@H](Cc2c[nH]cn2)NC(=O)[C@@H](N)C(C)C)[C@@H](C)O)[C@@H](C)O)C(=O)NC(C)(CCCc2ccccc2)C(N)=O)cc1 (single isomer, unassigned) [Seq. ID. No. 166, VHAQGT-(αMe-2FPhe)-T-(αMe-Ser)-D-(αMe-Bip(OMe))-(αMe-APPA)] | – | – | – | – | blood glucose level (in vivo glucose reduction) (0.5 μM/kg, oral, 0 min): 184 ± 2.5; blood glucose level (in vivo glucose reduction) (0.5 μM/kg, oral, 30 min): 115 ± 3.6; blood glucose level (in vivo glucose reduction) (0.5 μM/kg, oral, 60 min): 113 ± 4.2; blood glucose level (in vivo glucose reduction) (0.5 μM/kg, oral, 120 min): 110 ± 2.4 |
| CCc1cc(OC)ccc1-c1ccc(CC(NC(=O)C(C)(CC(=O)O)NC(=O)C(C)(CO)NC(=O)[C@@H](NC(=O)C(C)(Cc2ccccc2F)NC(=O)[C@@H](NC(=O)CNC(=O)[C@H](CCC(N)=O)NC(=O)C2(C)CCCN2C(=O)[C@H](Cc2c[nH]cn2)NC(=O)[C@@H](N)C(C)C)[C@@H](C)O)[C@@H](C)O)C(=O)NC(C)(CCCc2ccccc2)C(N)=O)cc1 (single isomer, unassigned) [Seq. ID. No. 118, VH-(αMe-Pro)-QGT-(αMe-2FPhe)-T-(αMe-Ser)-(αMe-Asp)-Bip(OMe)-(αMe-APPA)] | 184 ± 2.5 | 115 ± 1.6 | 113 ± 3.2 | 110 ± 2.4 | – |
| CCc1cc(OC)ccc1-c1ccc(CC(C)(NC(=O)[C@H](CC(=O)O)NC(=O)C(C)(CO)NC(=O)[C@@H](NC(=O)C(C)(Cc2c(F)cccc2F)NC(=O)[C@@H](NC(=O)CNC(=O)[C@H](CCC(=O)O)NC(=O)C(C)(C)NC(=O)[C@H](Cc2c[nH]cn2)NC(=O)[C@@H](N)C(C)C)[C@@H](C)O)[C@@H](C)O)C(=O)NC(C)(CCCc2ccccc2)C(N)=O)cc1 (single isomer, unassigned) [Seq. ID. No. 179, VH-Aib-EGT-(αMe-2,6-diFPhe)-T-(αMe-Ser)-D-(αMe-Bip(OMe))-(αMe-APPA)] | – | – | – | – | blood glucose level (in vivo glucose reduction) (20 nM/kg, i.p, 0 min): 182 ± 2.1; blood glucose level (in vivo glucose reduction) (20 nM/kg, i.p, 30 min): 121 ± 2.9; blood glucose level (in vivo glucose reduction) (20 nM/kg, i.p, 60 min): 130 ± 3.1; blood glucose level (in vivo glucose reduction) (20 nM/kg, i.p, 120 min): 138 ± 2.4 |
